Source: patent US11766496B2, “Antimicrobial fabric freshening compositions containing octenidine dihydrochloride” (The Procter & Gamble Company, priority 2019, dated 2023)
≈ marks a conversion by molar mass, not a printed value.

Assays:
Type in all cases: cell-based
[1] = test system: Staphylococcus aureus (S. aureus—ATCC #6538); experiment: Antibacterial efficacy on fabrics (cotton carriers); details: cotton fabric carriers; 0.05% antimicrobial active; 10 mins contact time; 5% horse serum soil load
Procedure: The bactericidal efficacy on fabric surfaces of fabric refresher compositions comprising different antimicrobial agents was determined against the bacterium, Staphylococcus aureus (S. aureus—ATCC #6538). The bacteria inoculum was prepared by transferring several colonies from a Tryptone Soy Agar (TSA) plate to a saline solution (0.85% NaCl) comprising 5% horse serum as additional soil load, the bacteria concentration in this saline solution was determined by measuring the % Transmittance at 425 nm and adjusted by either adding more bacteria or more saline solution until the % Transmittance at 425 nm is between 23-25% which corresponds to a bacteria concentration of 10^8 CFU/ml.
Fabric carriers, 1 cm×1 cm disks of cotton sterilized by autoclaving, were inoculated with 50 μL of the 10^8 CFU/ml bacteria inoculum and incubated for 30 mins at 32° C. After this incubation period, fabric carriers were treated with 2.5 ml of different fabric refresher compositions comprising no antimicrobial active (reference), or 0.05% of either bispyridinium alkane (octenidine dihydrochloride) or N-(3-aminopropyl)-N-dodecylpropane-1,3-diamine (Lonzabac 12.30) as antimicrobial actives. […] 100 μL of each of the serial dilutions were plated on a TSA plate, plates were incubated at 32° C. for 48 hours, after this incubation time, the number of colonies in each plate was counted. […]

[2] = test system: Escherichia coli (E. coli—ATCC #8739); experiment: Minimum Biocidal Concentration (MBC) in suspension
Procedure: (§1) The antimicrobial efficacy of the antimicrobial agent in the composition is determined by measuring its Minimum Biocidal Concentration (MBC). The MBC is defined as the lowest absolute concentration of the particular antimicrobial active which provides complete kill (zero bacterial growth). The MBC of the compositions herein was determined against the bacterium, Staphylococcus aureus (S. aureus—ATCC #6538), a gram positive bacterium, and against Escherichia coli (E. coli—ATCC #8739), a gram negative bacterium. These microorganisms are representative of natural contaminants in many consumer and industrial applications. The bacteria inoculum was prepared by transferring several colonies from a Tryptone Soy Agar (TSA) plate to a saline solution (0.85% NaCl), the bacteria concentration in this saline solution was determined by measuring the % Transmittance at 425 nm and adjusted by either adding more bacteria or more saline solution until the % Transmittance at 425 nm was between 23-25% for S. aureus, and between 30-32% for E. coli, this % transmittance corresponds to a bacteria concentration of 10^8 CFU/ml. […] Each subsequent well (rows B to G) were dosed with 100 μL of the same fabric refresher composition, without the addition of the antimicrobial agent. 100 μL of the fabric refresher composition comprising the antimicrobial active was transferred from row A to row B and mixed. 100 μL of the composition was then transferred from row B to row C and mixed, and the process repeated to row G. As such, the concentration of the antimicrobial agent underwent two-fold dilution in adjacent wells, while the concentration of the other actives in the fabric refresher composition remained constant across all the wells in the same column. 10 μL of the 10^8 CFU/ml bacteria suspension in saline was added to wells A to F of the microtiter plate with row G kept as a nil bacteria control. The final volume in each well was 110 μL, except for row G which comprised 100 μL of the fabric refresher composition and no bacteria suspension. […] The plate was incubated at 32.5° C. for 48 h. MBC concentration is taken as the lowest concentration of the antimicrobial active at which no visible colony growth is observed on the TSA plate. The antibacterial efficacy of the bispyridinium alkane octenidine hydrochloride was compared to that of quaternary ammonium and alkylamine antimicrobial compounds in two fabric freshening compositions.

[3] = test system: Staphylococcus aureus (S. aureus—ATCC #6538); experiment: Minimum Biocidal Concentration (MBC) in suspension
Procedure: as §1

[4] = in fabric freshening Composition 1, 20 minutes contact time
[5] = in fabric freshening Composition 2, 20 minutes contact time

Row | Compound | Number of bacteria extracted from treated fabrics [1] | MBC (ppm) against E. coli [2, 4] | MBC (ppm) against E. coli [2, 5] | MBC (ppm) against S. aureus [3, 4] | MBC (ppm) against S. aureus [3, 5] | MBC ([2]; Escherichia coli, ATCC8739, 20 min, in fabric freshening Composition 1, 20 minutes contact time, read-out: MBC (ppm) against E. coli) | MBC ([3]; Staphylococcus aureus, ATCC6538, 20 min, in fabric freshening Composition 1, 20 minutes contact time, read-out: MBC (ppm) against S. aureus)
1 | CCCCCCCCN=c1ccn(CCCCCCCCCCn2ccc(=NCCCCCCCC)cc2)cc1.Cl.Cl [Bispyridinium alkane (6), octenidine dihydrochloride] | no viable bacteria were recovered | 500 ppm | 250 ppm | 125 ppm | 47 ppm |  | 
2 | CCCCCCCCCCCCN(CCCN)CCCN [N-(3-aminopropyl)-N-dodecylpropane-1,3-diamine] | about 10^4 CFU/ml |  | 3000 ppm |  | 3000 ppm | 3000 µg/mL (≈ 10 mM) | 3000 µg/mL (≈ 10 mM)
3 | N-alkyl dimethyl benzyl ammonium chloride [N-alkyl dimethyl benzyl ammonium chloride (9)] |  | 3000 ppm |  | 375 ppm |  |  | 
4 | N-alkyl dimethyl benzyl ammonium chloride [N-alkyl dimethyl benzyl ammonium chloride (10)] |  | 1500 ppm |  | 562.5 ppm |  |  | 
